# Results published in PMC5529566, “The cryo-EM structure of gastric H^+,K^+-ATPase with bound BYK99, a high-affinity member of K^+-competitive, imidazo[1,2-a]pyridine inhibitors” (Scientific Reports, 2017).
# Tests used:
# [1] = biological target: H^+,K^+-ATPase N138F (Sus scrofa, UniProt P19156, N139F); experiment: ATPase assay, N138F mutant
# [2] = biological target: H^+,K^+-ATPase D137N/N138D (Sus scrofa, UniProt P19156, D138N/N139D); experiment: ATPase assay, D137N/N138D mutant
# [3] = biological target: H^+,K^+-ATPase V331A (Sus scrofa, UniProt P19156, V332A); experiment: ATPase assay, V331A mutant
# [4] = biological target: H^+,K^+-ATPase A125F (Sus scrofa, UniProt P19156, A126F); experiment: ATPase assay, A125F mutant
# [5] = biological target: H^+,K^+-ATPase M334F (Sus scrofa, UniProt P19156, M335F); experiment: ATPase assay, M334F mutant
# [6] = biological target: H^+,K^+-ATPase D137L (Sus scrofa, UniProt P19156, D138L); experiment: ATPase assay, D137L mutant
# [7] = biological target: H^+,K^+-ATPase N138A (Sus scrofa, UniProt P19156, N139A); experiment: ATPase assay, N138A mutant
# [8] = biological target: H^+,K^+-ATPase D136L (Sus scrofa, UniProt P19156, D137L); experiment: ATPase assay, D136L mutant
# [9] = system: H^+,K^+-ATPase; parameters: method as in doi:10.1016/j.tetlet.2006.02.156; conditions: cited from earlier work
# [10] = biological target: H^+,K^+-ATPase Q127A (Sus scrofa, UniProt P19156, Q128A); experiment: ATPase assay, Q127A mutant
# [11] = biological target: H^+,K^+-ATPase D136I (Sus scrofa, UniProt P19156, D137I); experiment: ATPase assay, D136I mutant
# [12] = biological target: H^+,K^+-ATPase L800F (Sus scrofa, UniProt P19156, L801F); experiment: ATPase assay, L800F mutant
# [13] = biological target: H^+,K^+-ATPase D137F (Sus scrofa, UniProt P19156, D138F); experiment: ATPase assay, D137F mutant
# [14] = biological target: H^+,K^+-ATPase D137N (Sus scrofa, UniProt P19156, D138N); experiment: ATPase assay, D137N mutant
# [15] = biological target: H^+,K^+-ATPase D136F (Sus scrofa, UniProt P19156, D137F); experiment: ATPase assay, D136F mutant
# [16] = biological target: H^+,K^+-ATPase A335V (Sus scrofa, UniProt P19156, A336V); experiment: ATPase assay, A335V mutant
# [17] = biological target: H^+,K^+-ATPase Y140I (Sus scrofa, UniProt P19156, Y141I); experiment: ATPase assay, Y140I mutant
# [18] = biological target: H^+,K^+-ATPase V338A (Sus scrofa, UniProt P19156, V339A); experiment: ATPase assay, V338A mutant
# [19] = biological target: H^+,K^+-ATPase Y140L (Sus scrofa, UniProt P19156, Y141L); experiment: ATPase assay, Y140L mutant
# [20] = biological target: H^+,K^+-ATPase Y799A (Sus scrofa, UniProt P19156, Y800A); experiment: ATPase assay, Y799A mutant
# [21] = biological target: H^+,K^+-ATPase Y799F (Sus scrofa, UniProt P19156, Y800F); experiment: ATPase assay, Y799F mutant
# Sequence of H^+,K^+-ATPase D137N (P19156 whole entry D138N): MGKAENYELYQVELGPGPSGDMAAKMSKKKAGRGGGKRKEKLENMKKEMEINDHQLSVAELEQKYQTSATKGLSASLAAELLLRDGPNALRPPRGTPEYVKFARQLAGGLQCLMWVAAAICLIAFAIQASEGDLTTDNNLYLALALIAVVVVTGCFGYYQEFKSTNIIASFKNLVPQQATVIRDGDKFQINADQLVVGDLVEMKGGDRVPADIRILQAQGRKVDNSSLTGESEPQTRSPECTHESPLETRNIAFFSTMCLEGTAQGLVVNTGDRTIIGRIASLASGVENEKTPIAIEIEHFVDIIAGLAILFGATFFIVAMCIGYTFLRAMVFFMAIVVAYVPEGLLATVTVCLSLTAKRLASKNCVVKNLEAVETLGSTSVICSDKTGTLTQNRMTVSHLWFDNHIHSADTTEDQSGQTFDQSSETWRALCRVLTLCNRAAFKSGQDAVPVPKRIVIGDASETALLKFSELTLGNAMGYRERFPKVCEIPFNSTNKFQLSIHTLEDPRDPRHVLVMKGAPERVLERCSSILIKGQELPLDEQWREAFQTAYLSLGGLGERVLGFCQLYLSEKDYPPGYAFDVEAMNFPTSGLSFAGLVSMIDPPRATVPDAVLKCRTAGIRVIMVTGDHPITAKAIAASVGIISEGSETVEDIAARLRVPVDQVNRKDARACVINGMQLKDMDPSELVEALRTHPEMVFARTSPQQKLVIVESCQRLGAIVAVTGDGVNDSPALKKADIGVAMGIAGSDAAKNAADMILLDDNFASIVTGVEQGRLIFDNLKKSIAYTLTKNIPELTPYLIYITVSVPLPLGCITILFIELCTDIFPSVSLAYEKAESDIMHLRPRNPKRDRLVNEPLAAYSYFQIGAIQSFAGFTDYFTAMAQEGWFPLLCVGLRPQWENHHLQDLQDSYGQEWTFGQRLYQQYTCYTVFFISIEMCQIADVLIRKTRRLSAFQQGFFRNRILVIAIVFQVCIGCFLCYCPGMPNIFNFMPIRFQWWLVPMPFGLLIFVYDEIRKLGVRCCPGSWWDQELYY
# Sequence of H^+,K^+-ATPase D137N (P18434 whole entry partner): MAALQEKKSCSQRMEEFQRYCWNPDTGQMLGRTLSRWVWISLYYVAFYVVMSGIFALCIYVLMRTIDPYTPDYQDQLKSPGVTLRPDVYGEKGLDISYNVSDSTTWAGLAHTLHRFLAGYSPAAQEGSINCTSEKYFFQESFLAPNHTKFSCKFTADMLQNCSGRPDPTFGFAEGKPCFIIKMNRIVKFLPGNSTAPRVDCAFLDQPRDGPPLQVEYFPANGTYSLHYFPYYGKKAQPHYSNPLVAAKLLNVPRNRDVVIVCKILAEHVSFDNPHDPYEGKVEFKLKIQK
# Sequence of H^+,K^+-ATPase N138A (P19156 whole entry N139A): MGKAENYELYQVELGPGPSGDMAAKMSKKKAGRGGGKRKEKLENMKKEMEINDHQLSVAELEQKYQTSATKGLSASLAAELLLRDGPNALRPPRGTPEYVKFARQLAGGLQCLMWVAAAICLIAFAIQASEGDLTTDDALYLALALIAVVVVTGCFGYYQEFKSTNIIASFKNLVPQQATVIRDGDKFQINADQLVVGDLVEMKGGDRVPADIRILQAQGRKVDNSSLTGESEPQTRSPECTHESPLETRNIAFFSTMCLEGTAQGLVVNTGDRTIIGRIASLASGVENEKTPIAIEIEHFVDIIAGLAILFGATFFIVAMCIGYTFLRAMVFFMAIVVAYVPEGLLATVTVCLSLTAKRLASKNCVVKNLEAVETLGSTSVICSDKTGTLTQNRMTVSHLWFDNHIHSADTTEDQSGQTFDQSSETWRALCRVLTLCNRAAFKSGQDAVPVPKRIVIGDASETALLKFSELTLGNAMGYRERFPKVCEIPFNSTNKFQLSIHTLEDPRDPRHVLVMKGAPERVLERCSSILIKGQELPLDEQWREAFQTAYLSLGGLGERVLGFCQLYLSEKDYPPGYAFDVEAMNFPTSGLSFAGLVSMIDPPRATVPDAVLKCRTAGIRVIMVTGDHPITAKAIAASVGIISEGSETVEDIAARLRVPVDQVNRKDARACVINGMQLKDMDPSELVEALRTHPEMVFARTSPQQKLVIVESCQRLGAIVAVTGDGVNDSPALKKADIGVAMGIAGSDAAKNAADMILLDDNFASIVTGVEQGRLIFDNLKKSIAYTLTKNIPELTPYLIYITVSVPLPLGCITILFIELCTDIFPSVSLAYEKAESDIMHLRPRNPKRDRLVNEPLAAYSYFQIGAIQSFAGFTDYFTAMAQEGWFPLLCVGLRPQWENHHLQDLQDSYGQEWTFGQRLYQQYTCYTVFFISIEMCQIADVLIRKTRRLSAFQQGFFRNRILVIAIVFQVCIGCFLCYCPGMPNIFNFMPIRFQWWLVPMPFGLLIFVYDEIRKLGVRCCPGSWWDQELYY
# Sequence of H^+,K^+-ATPase N138A (P18434 whole entry partner): as the sequence (P18434 whole entry partner) above
# Sequence of H^+,K^+-ATPase D137L (P19156 whole entry D138L): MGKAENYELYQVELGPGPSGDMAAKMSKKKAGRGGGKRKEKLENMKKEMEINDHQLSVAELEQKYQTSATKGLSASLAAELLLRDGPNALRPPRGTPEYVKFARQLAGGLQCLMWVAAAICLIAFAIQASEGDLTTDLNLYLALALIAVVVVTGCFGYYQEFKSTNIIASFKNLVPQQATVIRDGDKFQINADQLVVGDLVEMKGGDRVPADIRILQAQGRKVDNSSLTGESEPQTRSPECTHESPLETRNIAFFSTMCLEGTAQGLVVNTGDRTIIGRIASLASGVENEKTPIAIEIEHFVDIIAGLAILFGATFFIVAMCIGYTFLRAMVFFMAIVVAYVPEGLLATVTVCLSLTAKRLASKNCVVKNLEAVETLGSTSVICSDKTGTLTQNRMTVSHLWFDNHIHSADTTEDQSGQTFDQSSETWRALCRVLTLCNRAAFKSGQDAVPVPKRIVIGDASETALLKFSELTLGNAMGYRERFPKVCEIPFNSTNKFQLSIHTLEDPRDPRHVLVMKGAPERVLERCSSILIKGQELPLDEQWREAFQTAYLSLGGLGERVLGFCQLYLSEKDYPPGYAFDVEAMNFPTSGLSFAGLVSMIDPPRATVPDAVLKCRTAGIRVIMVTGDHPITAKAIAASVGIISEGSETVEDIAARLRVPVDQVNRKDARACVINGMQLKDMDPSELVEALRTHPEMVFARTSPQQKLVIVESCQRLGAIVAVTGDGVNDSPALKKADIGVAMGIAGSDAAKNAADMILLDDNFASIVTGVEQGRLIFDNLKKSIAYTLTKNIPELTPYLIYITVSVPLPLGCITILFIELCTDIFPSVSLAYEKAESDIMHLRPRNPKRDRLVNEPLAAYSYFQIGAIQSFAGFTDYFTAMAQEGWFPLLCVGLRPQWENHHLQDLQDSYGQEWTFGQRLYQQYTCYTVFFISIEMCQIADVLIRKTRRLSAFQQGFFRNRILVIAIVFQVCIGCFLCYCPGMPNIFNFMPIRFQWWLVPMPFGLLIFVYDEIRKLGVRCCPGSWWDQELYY
# Sequence of H^+,K^+-ATPase D137L (P18434 whole entry partner): as the sequence (P18434 whole entry partner) above
# Sequence of H^+,K^+-ATPase V331A (P19156 whole entry V332A): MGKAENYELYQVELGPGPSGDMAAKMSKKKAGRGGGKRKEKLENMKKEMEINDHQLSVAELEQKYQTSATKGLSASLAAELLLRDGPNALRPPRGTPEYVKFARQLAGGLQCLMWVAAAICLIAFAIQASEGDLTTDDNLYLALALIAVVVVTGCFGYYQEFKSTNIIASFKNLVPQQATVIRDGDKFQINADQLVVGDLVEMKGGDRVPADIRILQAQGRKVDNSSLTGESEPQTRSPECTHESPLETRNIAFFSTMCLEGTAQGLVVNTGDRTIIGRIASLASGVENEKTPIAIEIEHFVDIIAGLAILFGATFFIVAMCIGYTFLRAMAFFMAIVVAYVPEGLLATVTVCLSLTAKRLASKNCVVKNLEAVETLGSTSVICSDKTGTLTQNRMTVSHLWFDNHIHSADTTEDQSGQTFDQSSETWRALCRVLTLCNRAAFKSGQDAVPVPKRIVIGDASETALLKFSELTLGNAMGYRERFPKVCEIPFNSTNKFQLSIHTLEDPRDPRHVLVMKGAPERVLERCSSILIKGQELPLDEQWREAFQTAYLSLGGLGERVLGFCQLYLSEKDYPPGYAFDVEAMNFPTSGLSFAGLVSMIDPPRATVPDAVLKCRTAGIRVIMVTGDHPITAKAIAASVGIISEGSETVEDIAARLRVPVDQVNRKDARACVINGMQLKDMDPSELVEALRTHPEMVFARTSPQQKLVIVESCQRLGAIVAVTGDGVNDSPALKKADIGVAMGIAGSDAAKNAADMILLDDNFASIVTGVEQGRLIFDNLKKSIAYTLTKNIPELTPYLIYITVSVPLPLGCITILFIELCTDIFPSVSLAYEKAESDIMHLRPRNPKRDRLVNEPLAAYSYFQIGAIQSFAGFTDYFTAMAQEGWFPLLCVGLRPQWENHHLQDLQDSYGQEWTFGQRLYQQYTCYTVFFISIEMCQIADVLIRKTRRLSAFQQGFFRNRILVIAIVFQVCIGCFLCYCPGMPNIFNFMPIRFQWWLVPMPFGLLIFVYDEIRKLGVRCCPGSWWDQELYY
# Sequence of H^+,K^+-ATPase V331A (P18434 whole entry partner): as the sequence (P18434 whole entry partner) above
structure (smiles),measurement,setting,value
Cc1nc2c3c(ccn2c1C)[C@@H](O)[C@H](O)[C@@H](c1ccccc1)N3 [BYK99],Ki,[1],7700 ± 1200 nM
same,-fold increase in K i compared with wild-type,[1]; N138F,1300 fold
same,Ki,[2],110 ± 10 nM
same,-fold increase in K i compared with wild-type,[2]; D137N/N138D,19 fold
same,Ki,[3],47 ± 3 nM
same,-fold increase in K i compared with wild-type,[3]; V331A,8.1 fold
same,Ki,[4],12 ± 1 nM
same,-fold increase in K i compared with wild-type,[4]; A125F,2.1 fold
same,Ki,[5],16 ± 4 nM
same,-fold increase in K i compared with wild-type,[5]; M334F,2.8 fold
same,Ki,[6],220 ± 40 nM
same,-fold increase in K i compared with wild-type,[6]; D137L,38 fold
same,Ki,[7],1.4 ± 0.3 nM
same,-fold increase in K i compared with wild-type,[7]; N138A,0.2 fold
same,Ki,[8],5.3 ± 0.5 nM
same,-fold increase in K i compared with wild-type,[8]; D136L,0.9 fold
same,fold higher affinity than SCH28080,[9],more than 20 fold
same,Ki,[10],19 ± 1 nM
same,-fold increase in K i compared with wild-type,[10]; Q127A,3.3 fold
same,Ki,[11],15 ± 2 nM
same,-fold increase in K i compared with wild-type,[11]; D136I,2.6 fold
same,Ki,[12],59 ± 5 nM
same,-fold increase in K i compared with wild-type,[12]; L800F,10 fold
same,Ki,[13],640 ± 110 nM
same,-fold increase in K i compared with wild-type,[13]; D137F,110 fold
same,Ki,[14],450 ± 100 nM
same,-fold increase in K i compared with wild-type,[14]; D137N,78 fold
same,fold lower affinity than WT,[14]; D137N vs WT,more than 60 fold
same,Ki,[15],5.9 ± 0.7 nM
same,-fold increase in K i compared with wild-type,[15]; D136F,1.0 fold
same,Ki,[16],> 1000 nM
same,-fold increase in K i compared with wild-type,[16]; A335V,> 170 fold
same,Ki,[17],4.3 ± 0.5 nM
same,-fold increase in K i compared with wild-type,[17]; Y140I,0.7 fold
same,Ki,[18],50 ± 7 nM
same,-fold increase in K i compared with wild-type,[18]; V338A,8.6 fold
same,Ki,[19],5.3 ± 0.4 nM
same,-fold increase in K i compared with wild-type,[19]; Y140L,0.9 fold
same,Ki,[20],> 1000 nM
same,-fold increase in K i compared with wild-type,[20]; Y799A,> 170 fold
same,Ki,[21],110 ± 10 nM
same,-fold increase in K i compared with wild-type,[21]; Y799F,19 fold
